# Experimental data reported in US10561703B2, “Method of modulating sex hormone levels using a sex hormone secretion modulator” (GEMVAX & KAEL CO., LTD., priority 2013, dated 2020).
# Experiments:
# Estradiol E2 = Estradiol E2 level in blood (serum CLIA) after repeated sc PEP-1; assay type: in vivo, SD rats
# Description: PEP-1 (peptide of SEQ ID NO: 1), lyophilized white powder, obtained according to the method mentioned in example 1 was dissolved in 0.9% of saline, considering the correction factor of PEP-1 (purity: 94.13%, content: 92.36%, correction factor: 1.15). 50 mg/mL stock solution was further diluted into 20 mg/mL, 2 mg/mL, and 1 mg/mL with 0.9% saline, and stored at 4° C. for a week until the use.
# The purpose of this example is to confirm the change of sexual hormones in blood from SD rats with 7 days repeated daily administration of SEQ ID NO: 1 peptide, PEP-1. This experiment followed the Ethics Regulation of Animal Test by KAMSI Inc. (Korea Animal Medical Science Institute). In addition, this experiment, Non-GLP experiment, referred to the MFDS (Ministry of Food and Drug Safety) notification; Agent 2013-40 (5th April 2013), Principles of Good Laboratory Practice (1997).
# SPF Rats (Crlj:CD(SD)) were purchased from ORIENTBio Inc. (Mokdong-ri, Buk-myeon, Gapyeong-gun, Gyeonggi-do, Republic of Korea). 75 male (6.5 weeks old and 190˜210 g) and 75 female (6.5 weeks old and 160˜180 g) rats were monitored for 4 days, and 64 of male and female rats (each) were selected for the experiment. Raising condition is as follows; 23±3° C. of temperature, […] of relative humidity, 10˜20 times/hr of number of air changes, 12 hours (8 a.m.˜8 p.m.) of lighting with 150˜300 Lux of intensity.
# 64 male and female […] (mentioned above) were divided into 8 groups. Administration regimen, for example, drugs, routes, dosages, and volumes were as follows:
# The detailed administration regimen is as follows; once a day, twice a day and twice a week in each experimental group. Injection initiated at 10 a.m. every day, and each rat was injected at one minute intervals. Rats in Group 9, 10, 13 and 14 were injected twice a week. Administration of high dose test agent preceded that of low dose. The volume of injection was calculated using recently measured weight of rats, and it was 5 mL/kg. Subcutaneous injection was performed as follows; assistant tilted the back of rat upward, and experimenter sterilized the back of rat with 70% alcohol, followed by subcutaneous injection of test agent with 26 G syringe.
# 1.4 mL of blood sample (0.7 mL of serum) was collected after measurement of weight (Day 0). Next day (1 Day), 1.4 mL of blood sample (0.7 mL of serum) was collected twice after injection of test agent (4 hrs and 8 hrs after administration of test agent). […]
# A CLIA (Chemi-Luminescence Immune Assay) Kit was used to analyze Testosterone, Estradiol E2, FSH (Follicle stimulating hormone), and LH (Luteinizing hormone). […]
# Estradiol E2 was analyzed using the samples prepared from example 2. […] As mentioned in example 2, CLIA (Chemi-luminescence immune assay) Kit was used, following the manufacture's protocol. […]
# GnRH mRNA = experiment: Relative GnRH mRNA expression in serum, real-time qPCR; assay type: in vivo, Sprague-Dawley (SD) rats; settings: 100 mg/kg sc, 4 hr post-administration, Day 1
# Description: Sprague-Dawley (SD) rats were obtained from Orient Bio (Gyronggi-do, South Korea), and seven-week-old rats were used for the study. Rat were administered by subcutaneous (sc) injection of PEP-1 (100 mg/kg) twice (at Day 1 and at Day 7) during the seven day study period. Blood samples (1.4 mL) were collected at Day 0 (before the administration of PEP-1), at Day 1 (4 hr and 8 hr post injection), and at Day 7 (4 hr post injection). Serum samples obtained from the blood were used for the experiment. Serum samples prepared from the blood collected at Day 1 (4 hr post injection) were used for the experiment. The animal care and procedures were approved and in accordance with the Korea Animal Medical Science Institute (KAMSI) IACUC.
# RNA isolation and cDNA synthesis from the serum samples. The external control, miRNeasy Serum/Plasma Spike-In Control was added in each serum sample prior to the RNA extraction. […]
# Real-time qPCR was performed using the RT2 SYBR Green qPCR Mastermix kit (Qiagen) with a CFX96 Real-Time System (Bio-Rad, Hercules, Calif., USA). Data was analyzed by CFX Manager™ Software V3.0 using the ΔΔCt method.
# Rat serum samples obtained from the blood collected at 4 hr post-administration of PEP-1 (100 mg/kg) on the 1st day of the experiment were analyzed for the mRNA expression of gonadotropin-releasing hormone (GnRH). […]
# RWPE-1 = experiment: Cell proliferation (CCK-8) in prostate epithelial cell line; assay type: cell-based
# Description: When testosterone is injected into the body, testosterone becomes dihydrotestosterone (DHT) due to 5α-reductase, which stimulates the proliferation of prostate cells and induces benign prostatatic hyperplasia (BPH). Based on these facts, a PEP-1 (GV1001) injection experiment was performed for the inhibition of proliferation of prostatic cells in the following manner: The cell lines were mesenchymal cell lines (WPMY-1) and epithelial cell lines (RWPE-1) of prostates obtained from BPH animal models. […] Observation of changes in the proliferation was performed by suctioning a culture medium, adding 10 μL of CCK-8 solution to each well, and measuring an optical density at 450 nm for 1 hour to about 4 hours.
sequence,measurement,setting,value
"EARPALLTSRLRFIPK (listed as Homo sapiens) [PEP-1, hormone secretion modulator / GnRH analog]",Estradiol E2 level,"Estradiol E2; female group, Day 1, all groups (PEP-1 and/or vehicle), baseline 20-50 pg/mL",16 to 30 pg/mL
same,Effect on Estradiol E2 level,"Estradiol E2; female group, level recovered from Day 3-4",inhibited the Estradiol E2 level in the beginning
same,Effect on Estradiol E2 level,Estradiol E2; male rat,does not have effect on Estradiol E2 level
same,Estradiol E2 level,"Estradiol E2; male rat, initial level remained same until Day 7",15 to 20 pg/mL
same,Relative GnRH mRNA expression in serum,GnRH mRNA; female rats,increased the relative GnRH mRNA expression
same,Relative GnRH mRNA expression in serum,GnRH mRNA; male rats,increased the relative GnRH mRNA expression
same,Cell proliferation (optical density at 450 nm) versus untreated cells,"RWPE-1; RWPE-1, 100 and 200 μM GV1001, no DHT",did not show a substantial difference in optical densities
same,Inhibition of DHT-induced cell proliferation,"RWPE-1; RWPE-1, 100 and 200 μM GV1001 with 25 nM DHT",substantial inhibition effects on proliferation
